Experimental data published in patent US10490837B2, “Bioreactor comprising immobilized enzyme, method for improving activity of immobilized enzyme, and biofuel cell” (TOYOTA JIDOSHA KABUSHIKI KAISHA, priority 2012, dated 2019).
“Also recorded” adds a separate entry of the source. Where two headings read alike, the source gives them in different places.

Experiments:
[1] = system: Glucose dehydrogenase (immobilized enzyme); settings: substrate glucose, NADP; 1M additive/buffer pH 7.0; 25° C. for 30 minutes
Description: (§1) The solution was stirred at 25° C. for 30 minutes to allow the enzyme to react with the substrate. Then, WST1 and mPMS were added for color development. Absorbance was measured with a spectrophotometer.

[2] = system: Glutamate dehydrogenase (immobilized enzyme); settings: substrate monosodium glutamate, NADP; 1M additive/buffer pH 7.0; 25° C. for 30 minutes
Description: as §1

[3] = system: Formate dehydrogenase (immobilized enzyme); settings: substrate sodium formate, NAD; 1M additive/buffer pH 7.0; 25° C. for 30 minutes
Description: as §1

[4] = system: Formate dehydrogenase (immobilized enzyme); test: Effects of heterocyclic compounds on activity of immobilized formate dehydrogenase (WST1/mPMS, absorbance), Examples 4-8; settings: for enzyme activity of immobilized enzyme in the presence of the heterocyclic compound (in words): immobilized formate dehydrogenase, Examples 4-8
Description: A support was applied a fibrous base material cut in pieces 1 cm^2 in area, followed by drying. Each piece of fibrous base material was allowed to absorb a liquid obtained by mixing 2.5% glutaraldehyde, 20% poly-L-lysine, 10 mM Tris-HCl (pH 8.0), and formate dehydrogenase, followed by drying. Thus, immobilized enzymes were prepared.
The solution was stirred at 25° C. for 30 minutes to induce a reaction. Then, WST1 and mPMS were added for color development. Absorbance was measured with a spectrophotometer (Infinite M200 manufactured by TECAN).

Cl.c1c[nH]cn1 [Example 1, imidazole HCl] was tested, and the OD [1] was 0.4668.

Cl.c1c[nH]cn1 [Example 2, imidazole HCl] gave an OD [2] of 1.1707.

In the case of Cl.c1c[nH]cn1 [Example 3, imidazole HCl], the OD [3] is reported as 0.5996.

With c1cnccn1 [Example 4, Pyrazine] the “enzyme activity of immobilized enzyme in the presence of the heterocyclic compound (in words)” value (shortened to “enzyme activity of immobilized enzyme”) [4] was “excellent enzyme activity; also recorded: significantly improved enzyme activity”.

With O=C1NCCN1 [Example 5, 2-Imidazolidinone] the “enzyme activity of immobilized enzyme” value [4] was “excellent enzyme activity; also recorded: significantly improved enzyme activity”.

For C=Cn1ccnc1 [Example 6, 1-Vinylimidazole], the “enzyme activity of immobilized enzyme” value [4] was “excellent enzyme activity; also recorded: significantly improved enzyme activity”.

With N[C@@H](Cc1c[nH]cn1)C(=O)O [Example 8, Histidine] the OD ([4]; 0.2M heterocyclic compound, 25° C. for 30 minutes) was 1.1902 and the “enzyme activity of immobilized enzyme” value [4] was “excellent enzyme activity”.

Work on “sodium phosphate buffer [Comparative Example 1, reference compound]” yielded an OD [1] of 0.1598.

“sodium phosphate buffer [Comparative Example 3, reference compound]” was tested, and the OD [3] was 0.4134.

With “sodium phosphate buffer [reference compound]” the OD [2] was 0.3966.
